Assay results from patent US7897593B2, “HIV integrase inhibitors” (priority 2006, dated 2011).
pEC50, pIC50: −log10 of the molar value.

Tests used:
[1] = target: T1, HIV-integrase (Human immunodeficiency virus type 1 group M subtype B, UniProt P12497); experiment: HIV-Integrase Inhibition Activity (SPA strand transfer assay); format: biochemical; conditions: recombinant integrase, SPA beads, P33 labeled target DNA
T1 construct: Recombinant integrase (0.26 ng) was incubated with the beads
Protocol: HIV-Integrase InhibitionActivity. To evaluate in-vitro activity against HIV-integrase, 5 pmole of biotin labeled substrate DNA was bound to 100 μg of Streptavidin coated PVT SPA beads (Amersham Pharmacia Biotech). Recombinant integrase (0.26 ng) was incubated with the beads for 90 min at 37° C. Unbound enzyme was removed by washing the complex followed by addition of inhibitors and 0.1 fmol of P33 labeled target DNA. The reaction was stopped by adding EDTA to a final concentration of 10 mM. Samples were counted in TopCountNXT (Packard) and the CPM was used as a measure of integration. The reaction condition was as described in A. Engelman and R. Craigie, J. Virol 69, 5908-5911 (1995). The sequences of substrate and target DNA were described in Nucleic Acid Research 22, 1121-1122 (1994). Activity equal to A refers to a compound having IC50=0.001 to 0.01 μM B=0.01-0.1, and C≧0.1 μM respectively.

[2] = system: recombinant NL-Rluc virus; experiment: Inhibition of HIV replication; format: cell-based; conditions: Human immunodeficiency virus 1, read-out: Antiviral Activity, NL-RLuc virus; three serum conditions described, the one tabulated is not stated

Row | Compound | pIC50 [1] | pEC50 [2]
1 | Cc1ccc(F)cc1S(=O)(=O)N1CCC2(CC1)OCCn1c2nc(C(=O)NCc2ccc(F)cc2-n2cncn2)c(O)c1=O [Example 19] | 8.00 to 9.00 | 8.00 to 9.00
2 | Cc1ccc(S(=O)(=O)N2CCC3(CC2)OCCn2c3nc(C(=O)NCc3ccc(F)cc3-n3cncn3)c(O)c2=O)cc1 [Example 11] | 8.00 to 9.00 | 8.00 to 9.00
3 | Cc1ccc(S(=O)(=O)N2CCC3(CC2)OCCn2c3nc(C(=O)NCc3ccc(F)cc3-n3ncnc3C)c(O)c2=O)cc1 [Example 16] | 7.00 to 8.00 | 8.00 to 9.00
4 | COC(=O)C(=O)N1CCC2(CC1)OCCn1c2nc(C(=O)NCc2ccc(F)cc2)c(O)c1=O [Example 28, Methyl 2-(2′-(4-fluorobenzylcarbamoyl)-3′-hydroxy-4′-oxo-6′,7′-dihydro-4′H-spiro[piperidine-4,9′-pyrimido[2,1-c][1,4]oxazine]-1-yl)-2-oxoacetate] | 8.00 to 9.00 | 7.00 to 8.00
5 | O=C(NCc1ccc(F)cc1)c1nc2n(c(=O)c1O)CCCCC21CCN(C(=O)OCc2ccccc2)CC1 [Example 56] | 7.00 to 8.00 | 7.00 to 8.00
6 | O=C(NCc1ccc(F)cc1)c1nc2n(c(=O)c1O)CCOC21CCN(C(=O)c2ccccc2)CC1 [Example 10] | 7.00 to 8.00 | 8.00 to 9.00
7 | CN(C)S(=O)(=O)N1CCC2(CC1)OCCn1c2nc(C(=O)NCc2ccc(F)cc2-n2cncn2)c(O)c1=O [Example 1, 1-(N,N-Dimethylsulfamoyl)-N-(4-fluoro-2-(1H-1,2,4-triazol-1-yl)benzyl)-3′-hydroxy-4′-oxo-6′,7′-dihydro-4′H-spiro[piperidine-4,9′-pyrimido[2,1-c][1,4]oxazine]-2′-carboxamide] | 8.00 to 9.00 | 8.00 to 9.00
8 | Cc1ccc(S(=O)(=O)N2CCC3(CC2)OCCn2c3nc(C(=O)NCc3ccc(F)cc3)c(O)c2=O)cc1 [Example 12] | 7.00 to 8.00 | 8.00 to 9.00
9 | Cc1ncnn1-c1cc(F)ccc1CNC(=O)c1nc2n(c(=O)c1O)CCOC21CCN(C(=O)OCc2ccccc2)C1 (centres unmarked) [Example 37, Benzyl 2-(4-fluoro-2-(5-methyl-1H-1,2,4-triazol-1-yl)benzylcarbamoyl)-3-hydroxy-4-oxo-6,7-dihydro-4H-spiro[pyrimido[2,1-c][1,4]oxazine-9,3′-pyrrolidine]-1′-carboxylate] | 7.00 to 8.00 | 7.00 to 8.00
10 | Cc1ncnn1-c1cc(F)ccc1CNC(=O)c1nc2n(c(=O)c1O)CCOC21CCN(C(=O)OCc2ccccc2)CC1 [Example 23] | 7.00 to 8.00 | 8.00 to 9.00
11 | CN(C)C(=O)C(=O)N1CCC2(CC1)OCCn1c2nc(C(=O)NCc2ccc(F)cc2)c(O)c1=O [Example 30, 1-(2-(Dimethylamino)-2-oxoacetyl)-N-(4-fluorobenzyl)-3′-hydroxy-4′-oxo-6′,7′-dihydro-4′H-spiro[piperidine-4,9′-pyrimido[2,1-c][1,4]oxazine]-2′-carboxamide] | 8.00 to 9.00 | 7.00 to 8.00
12 | O=C(NCc1ccc(F)cc1)c1nc2n(c(=O)c1O)CCOCC21CCN(C(=O)OCc2ccccc2)CC1 [Example 54] | 7.00 to 8.00 | 7.00 to 8.00
13 | O=C(NCc1ccc(F)cc1)c1nc2n(c(=O)c1O)CCOC21CCN(C(=O)OCc2ccccc2)C1 (centres unmarked) [Example 36, Benzyl 2-(4-fluorobenzylcarbamoyl)-3-hydroxy-4-oxo-6,7-dihydro-4H-spiro[pyrimido[2,1-c][1,4]oxazine-9,3′-pyrrolidine]-1′-carboxylate] | 8.00 to 9.00 | 8.00 to 9.00
14 | CN(C)S(=O)(=O)N1CCC2(CC1)OCCn1c2nc(C(=O)NCc2ccc(F)cc2)c(O)c1=O [Example 2] | 8.00 to 9.00 | 8.00 to 9.00
15 | Cc1ncn(-c2cc(F)ccc2CNC(=O)c2nc3n(c(=O)c2O)CCOC32CCN(S(=O)(=O)c3cc(F)ccc3C)CC2)n1 [Example 20] | 8.00 to 9.00 | 8.00 to 9.00
16 | Cc1ccc(S(=O)(=O)N2CCC3(CC2)OCCn2c3nc(C(=O)NCc3ccc(F)cc3S(=O)(=O)N3CCOCC3)c(O)c2=O)cc1 [Example 14] | 7.00 to 8.00 | 8.00 to 9.00
